Source: publication PMC9181982, “Biphenyl Ether Analogs Containing Pomalidomide as Small-Molecule Inhibitors of the Programmed Cell Death-1/Programmed Cell Death-Ligand 1 Interaction” (Molecules, 2022)
“Also recorded” adds a separate entry of the source.

Test system: PD-1/PD-L1 blockade, Jurkat effector cells / CHO/TCRAct/PD-L1 cells
Experiment: Immune checkpoint blockade (ICB) assay (Promega): Jurkat ECs co-cultured with CHO/TCRAct/PD-L1 cells, NFAT luciferase readout
Type: cell-based, human
Conditions: for Activation of Jurkat ECs compared with BMS-1166: 5 µM, p < 0.001 vs BMS-1166; for Activation of Jurkat ECs in the ICB assay: 6 h co-culture, fold induction vs control; for Promega Assay (active / not active): cell-based PD-1/PD-L1 blockade bioassay
Method: In order to explore the bioactivity of the synthesized compounds, a well-recognized immune checkpoint blockade (ICB) assay was performed. In the assay, artificial T cells, the Jurkat effector cells (Jurkat ECs), i.e., the Jurkat T cells overexpressing PD-1 and luciferase-coding gene under the control of the TCR-inducible NFAT response element, are contacted with artificial antigen-presenting CHO/TCRAct/PD-L1 cells, as illustrated in [31]. The latter is the CHO cells equipped with the TCR activator molecule, which delivers activation of Jurkat ECs, and also the PD-L1 protein, which provides a negative signal towards the activation of Jurkat ECs. Upon the blockade of the PD-1/PD-L1 interaction, activation of Jurkat ECs is increased, as we have shown before for several classes of therapeutic antibodies and small molecules.
The human PD-L1-expressing CHO-K1 cells overexpressing TCR activator (CHO/TCRAct/PD-L1) cells and Jurkat ECs T cells overexpressing PD-1 and carrying a luciferase reporter gene under the control of the Nuclear Factor of Activated T cells Response Element (NFAT-RE) were obtained from Promega and cultured in an RPMI-1640 medium (Biowest, Nuaillé, France) supplemented with 10% fetal bovine serum (FBS, Biowest, Nuaillé, France) and […] L-glutamine (Biowest, Nuaillé, France). G418 (250 µg/mL, InvivoGen, San Diego, CA, USA) and Hygromycin B Gold (50 µg/mL, InvivoGen, San Diego, CA, USA) were also added to the culture medium as selection antibiotics. CAKI 2, LNCap, PC-3, and MDA-MB-231 cells were purchased from the European Collection of Authenticated Cell Cultures (ECACC) and cultured according to the provided protocol.
For the analysis of biological activity of the analyzed compounds, an immune checkpoint blockade (ICB) assay was performed. For this, the culture of Jurkat effector cells (Jurkat-ECs) and […] was carried out. The assay was performed according to the protocol described in our previous works. All the experiments were performed three times as independent experiments.
Figure 2 Bioactivity of the indicated compounds. (A,B) The activity was monitored with a cell-based immune checkpoint blockade (ICB) assay. Jurkat ECs were contacted with pre-seeded CHO/TCRAct/PD-L1 cells in the presence of the indicated concentrations of the compounds (A) or durvalumab (B) as a positive control. The cells were co-cultured for 6 h and the luminescence signal was measured following the addition of the Bio-Glo substrate. The graphs show fold induction calculated versus either DMSO-treated (for small molecules) or untreated (for durvalumab) control (ctrl) cells. The results are mean ± SD from three independent experiments. […] (C) Analysis of the expression of PD-L1 in four human cancer cell lines compared to PD-L1-overexpressing CHO/TCRAct/PD-L1 cells. (D) Analysis of the expression of PD-L1 in MDA-MB-231 cells treated with either 4 or 5 compounds for 6 or 24 h.

Row | Compound | Activation of Jurkat ECs compared with BMS-1166 | Activation of Jurkat ECs in the ICB assay | Promega Assay (active / not active)
1 | COc1nc(OCc2cccc(-c3ccccc3)c2C)ccc1CNCCCNc1cccc2c1C(=O)N(C1CCC(=O)NC1=O)C2=O (stereo not drawn) [compound 5, 2-(2,6-dioxopiperidin-3-yl)-4-((3-(((2-methoxy-6-((2-methyl-[1,1′-biphenyl]-3-yl)methoxy)pyridin-3-yl)methyl)amino)propyl)amino)isoindoline-1,3-dione] | significantly higher levels of the activation of Jurkat ECs | able to increase the activation of Jurkat ECs; also recorded: significantly restore the repressed immunity | Active
2 | COc1nc(OCc2cccc(-c3ccccc3)c2C)ccc1CNCC1CCN(CC(=O)Nc2cccc3c2C(=O)N(C2CCC(=O)NC2=O)C3=O)CC1 (stereo not drawn) [compound 4, N-(2-(2,6-dioxopiperidin-3-yl)-1,3-dioxoisoindolin-4-yl)-2-(4-((((2-methoxy-6-((2-methyl-[1,1′-biphenyl]-3-yl)methoxy)pyridin-3-yl)methyl)amino)methyl)piperidin-1-yl)acetamide] | significantly higher levels of the activation of Jurkat ECs | able to increase the activation of Jurkat ECs; also recorded: significantly restore the repressed immunity | Active
